Counter-ions that a name gives are not always drawn. Like-named read-outs stand apart in the source and are kept apart here.
Key:
[1] = tested on: Mycobacterium tuberculosis H37Rv; experiment: Mycobacterium tuberculosis H37Rv Inhibition Assay (MIC, resazurin fluorescence); type: cell-based; settings: ATCC 25618 / H37Rv
[2] = Whole-cell antimicrobial activity assay, broth microdilution (CLSI M7-A7), MIC; type: cell-based; settings: two-fold dilutions 0.016 to 16 mcg/mL, at least one of the listed Gram-positive/Gram-negative organisms, at least one exemplified salt or free base form, read-out: MIC against at least one of the organisms listed
Procedure: Whole-cell antimicrobial activity was determined by broth microdilution using the Clinical Laboratory Standards Institute (CLSI) recommended procedure, Document M7-A7, “Methods for Dilution Susceptibility Tests for Bacteria that Grow Aerobically”. The compounds were tested in serial two-fold dilutions ranging from 0.016 to 16 mcg/mL.
The minimum inhibitory concentration (MIC) was determined as the lowest concentration of compound that inhibited visible growth. A mirror reader was used to assist in determining the MIC endpoint.
Compounds were evaluated against Gram-positive organisms, including Staphylococcus aureus, Streptococcus pneumoniae, Streptococcus pyogenes, Enterococcus faecalis and Enterococcus faecium.
In addition, compounds were evaluated against Gram-negative organisms including Haemophilus influenzae, Moraxella catarrhalis, Escherichia coli, Pseudomonas aeruginosa, Proteus mirabilis, Enterobacter cloacae, Enterobacter aerogenes, Klebsiella pneumoniae, Acinetobacter baumanii and Stenotrophomonas maltophilia.

[3] = H37Rv strain (ATCC25618), Middlebrook 7H9+ADC, six days at 37° C., resazurin read after 48 hours, read-out: MIC value

Row | SMILES | MIC [1, 3] [µg/mL] | other results
1 | COc1ccc2ncc(=O)n(-c3cnc4c(c3)C[C@@H](O)[C@H](NCc3cc5c(cn3)OCCO5)C4)c2n1 (racemic) [Example 18, 4-{(6R/S,7R/S)-7-[(2,3-Dihydro[1,4]dioxino[2,3-c]pyridin-7-ylmethyl)amino]-6-hydroxy-5,6,7,8-tetrahydro-3-quinolinyl}-6-(methyloxy)pyrido[2,3-b]pyrazin-3(4H)-one dihydrochloride] | – | MIC ([1]; read-out: MIC value, H37Rv strain (ATCC25618), Middlebrook 7H9+ADC, six days at 37° C., resazurin read after 48 hours): ≤ 1.1 µg/mL
2 | COc1ccc2ncc(=O)n(-c3cnc4c(c3)C[C@@H](O)[C@@H](NCc3cc5c(nn3)OCCO5)C4)c2n1 (relative stereo) [Example 13, Cis-4-{7-[(6,7-Dihydro[1,4]dioxino[2,3-c]pyridazin-3-ylmethyl)amino]-6-hydroxy-5,6,7,8-tetrahydro-3-quinolinyl}-6-(methyloxy)pyrido[2,3-b]pyrazin-3(4H)-one dihydrochloride] | ≤ 1.1 | –
3 | COc1ccc2ncc(=O)n(-c3cnc4c(c3)C[C@@H](O)[C@@H](NCc3cc5c(cn3)OCCO5)C4)c2n1 (relative stereo) [Example 14, Cis-4-{7-[(2,3-Dihydro[1,4]dioxino[2,3-c]pyridin-7-ylmethyl)amino]-6-hydroxy-5,6,7,8-tetrahydro-3-quinolinyl}-6-(methyloxy)pyrido[2,3-b]pyrazin-3(4H)-one] | ≤ 1.1 | –
4 | COc1ccc2ncc(=O)n(-c3cnc4c(c3)CCC(NCc3cc5c(nn3)OCCO5)C4)c2n1 (stereo not drawn) [Example 7, 4-{7-[(6,7-Dihydro[1,4]dioxino[2,3-c]pyridazin-3-ylmethyl)amino]-5,6,7,8-tetrahydro-3-quinolinyl}-6-(methyloxy)pyrido[2,3-b]pyrazin-3(4H)-one hydrochloride] | ≤ 1.1 | –
5 | COc1ccc2ncc(=O)n(-c3cnc4c(c3)CCC(NCc3cc5c(cn3)OCCO5)C4)c2n1 (stereo not drawn) [Example 8, 4-{7-[(2,3-Dihydro[1,4]dioxino[2,3-c]pyridin-7-ylmethyl)amino]-5,6,7,8-tetrahydro-3-quinolinyl}-6-(methyloxy)pyrido[2,3-b]pyrazin-3(4H)-one hydrochloride] | ≤ 1.1 | –
6 | COc1ccc2ncc(=O)n(-c3cnc4c(c3)OCC(NCc3cc5c(cn3)OCCO5)C4)c2n1 (stereo not drawn) [Example 17, 4-{3-[(2,3-Dihydro[1,4]dioxino[2,3-c]pyridin-7-ylmethyl)amino]-3,4-dihydro-2H-pyrano[3,2-b]pyridin-7-yl}-6-(methyloxy)pyrido[2,3-b]pyrazin-3(4H)-one fumarate] | – | MIC [2]: 16 µg/mL

Source: patent publication US20100197679A1, “COMPOUNDS” (Glaxo Group Limited, priority 2007, published 2010)
